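Step 1: Grow cells in 96-well plates. Step 2: Expose to compound for 48 hours at 5 concentrations. Step 3: Interpolate endpoints linearly; if unreached, use highest concentration. At the GI50, growth is halved.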 Activity calls are given as the source filed them. No stated cut-off is given here; in the data, active = GI50 up to about 1.1 µM and inactive = higher.

Some test systems named below: CAKI-1; SF-539; KM12; HL-60; MDA-N; RXF 393; HCT-116; SF-268; HOP-62; SF-295; SR; COLO 205; NCI-H23; NCI-H226; MCF7; LOX IMVI; OVCAR-4; DU-145; UO-31; SK-MEL-2.
What all share (experiment): growth of human tumour cells (NCI), 48 h

For `Cn1c(=S)c2nc(SCCCc3ccccc3)[nH]c2n(C)c1=O`, the GI50 is 20.9 µM (inactive) with CAKI-1; 27.9 µM (inactive) with SF-539; 19.5 µM (inactive) in the assay with KM12; 18.2 µM (inactive) in the assay on HL-60; 21.8 µM (inactive) with MDA-N; 56.5 µM (inactive) in the assay on RXF 393. Besides, the GI50 with HCT-116 was 21.8 µM (inactive); in the assay on SF-268, 32.5 µM (inactive); in the assay with HOP-62, 17.3 µM (inactive); with SF-295, 11.4 µM (inactive); with SR, 4.85 µM (inactive); in the assay on COLO 205 it was 12.6 µM (inactive). Also, the GI50 with NCI-H23 is 16.7 µM (inactive); in the assay with NCI-H226 it was 21.5 µM (inactive); in the assay with MCF7, 22.1 µM (inactive); in the assay on LOX IMVI, 27.5 µM (inactive); in the assay with OVCAR-4 it was 13 µM (inactive); in the assay on DU-145 it was 36.1 µM (inactive). For the same compound, the GI50 was 14.4 µM (inactive) with UO-31 and 40.8 µM (inactive) in the assay with SK-MEL-2.

As for `O=C1Nc2ccccc2/C1=N/Nc1ccccc1Cl`, the GI50 in the assay with CAKI-1 is 15.7 µM (inactive); in the assay with SF-539 it was 29 µM (inactive); in the assay on KM12 it was 63.1 µM (inactive); in the assay on HL-60, 68.1 µM (inactive); with MDA-N, 95.5 µM (inactive); with RXF 393 it was 34.8 µM (inactive). In addition, the GI50 in the assay on HCT-116 was 23.7 µM (inactive); in the assay on SF-268, 29.8 µM (inactive); in the assay on HOP-62, 11.1 µM (inactive); with SF-295 it was 32.1 µM (inactive); with SR, 7.62 µM (inactive); with COLO 205, 24.9 µM (inactive). For the same compound, the GI50 is 42.8 µM (inactive) in the assay on NCI-H23; 53.2 µM (inactive) in the assay with NCI-H226; > 100 µM (inactive) in the assay on MCF7; 69 µM (inactive) in the assay on LOX IMVI; 3.57 µM (inactive) with OVCAR-4; 70 µM (inactive) in the assay on DU-145. Further, the values for the GI50 in the assay on UO-31 and in the assay with SK-MEL-2 were 18.7 µM (inactive) and 63.5 µM (inactive), respectively.

`Cc1cc2nc(C=C(C(F)(F)F)C(F)(F)F)sc2cc1C`: the GI50 in the assay on CAKI-1 was 2.64 µM (inactive); with SF-539, 1.54 µM (inactive); in the assay on KM12, 1.7 µM (inactive); in the assay with HL-60, 0.482 µM (active); in the assay with MDA-N, 1.44 µM (inactive); in the assay with RXF 393 it was 1.16 µM (inactive). Further, the GI50 in the assay on HCT-116 was 1.1 µM (active); in the assay on SF-268 it was 3.05 µM (inactive); in the assay with HOP-62, 3.05 µM (inactive); in the assay with SF-295, 3.15 µM (inactive); in the assay with SR, 0.0923 µM (active); in the assay with COLO 205, 1.4 µM (inactive). Further, the GI50 in the assay on NCI-H23 was 1.46 µM (inactive); with NCI-H226, 1.21 µM (inactive); in the assay with MCF7, 2.63 µM (inactive); with LOX IMVI, 0.294 µM (active); in the assay on OVCAR-4, 2.99 µM (inactive); in the assay on DU-145, 3.37 µM (inactive). In addition, the GI50 in the assay on UO-31 is 2.53 µM (inactive); in the assay on SK-MEL-2, 1.73 µM (inactive).

In the case of `COc1ccc(/C=C2\N/C(=N/N)N=C2Cl)cc1`, the GI50 in the assay on CAKI-1, with SF-539, with KM12, with HL-60, in the assay with MDA-N and in the assay on RXF 393 was > 100 µM (inactive) throughout. The GI50 in the assay on HCT-116, with SF-268, in the assay on HOP-62, with SF-295, in the assay on SR and in the assay on COLO 205 was > 100 µM (inactive) throughout. Moreover, the GI50 with NCI-H23, in the assay with NCI-H226, in the assay with MCF7, with LOX IMVI, in the assay with OVCAR-4 and with DU-145 was > 100 µM (inactive) each time. The GI50 with UO-31 and with SK-MEL-2 was > 100 µM (inactive) throughout.

Take `C[C@@H]1C[C@H](O)[C@]2(O)O[C@@H]3C[C@@]4(C=O)[C@@H](CC[C@@H]5[C@@H]4CC[C@]4(C)[C@@H](C6=CC(=O)OC6)CC[C@]54O)C[C@H]3O[C@@H]2O1` [CALOTROPIN]: the GI50 in the assay on CAKI-1 is 0.023 µM (active); in the assay on SF-539 it was 0.0212 µM (active); with KM12, 0.0809 µM (active); in the assay with HL-60 it was 0.0397 µM (active); in the assay with MDA-N it was 0.0692 µM (active); with RXF 393, 0.0176 µM (active). Moreover, the GI50 in the assay with HCT-116 was 0.0193 µM (active); in the assay with SF-268, 0.0406 µM (active); in the assay on HOP-62 it was 0.0244 µM (active); in the assay on SF-295, 0.0372 µM (active); in the assay with SR, 0.0181 µM (active); in the assay on COLO 205, 0.0726 µM (active). Also, the GI50 in the assay on NCI-H23 was 0.0188 µM (active); with NCI-H226 it was 0.0815 µM (active); in the assay on MCF7 it was 0.0238 µM (active); in the assay on LOX IMVI it was 0.0231 µM (active); in the assay on OVCAR-4 it was 0.0179 µM (active); in the assay with DU-145, 0.0134 µM (active). In addition, the GI50 with UO-31 is 0.0583 µM (active); in the assay on SK-MEL-2 it was 0.0436 µM (active).
